What was measured:
[1] = system: chemotherapeutic drug-induced mouse model with hand-foot syndrome; assay: chemotherapeutic drug-induced mouse model with hand-foot syndrome; assay type: in vivo, ICR mice; details: for swelling of the hind limb toes of the mice / epidermal layer and the stratum corneum in the skin tissues of the hind limb toes: modeling drug oral; for swelling of the hind limb toes of the mice: 14 days: capecitabine 200 mg/kg, docetaxel 25 mg/kg; for epidermal layer and the stratum corneum in the skin tissues of the hind limb toes: 14 days: capecitabine, docetaxel; for skin of the hind limb toes of the mice (appearance): modeling for 14 days: capecitabine 200 mg/kg, docetaxel 25 mg/kg oral gavage once daily
Description: After adaptive feeding for 7 days, SPF-grade ICR mice (male, 5-6 weeks old, with a body weight of approximately 35 g) were randomly divided into groups, including a blank control group (6 mice), a capecitabine modeling group (6 mice), a docetaxel modeling group (6 mice), a capecitabine + compound of formula (I) group (6 mice), a docetaxel + compound of formula (I) group (6 mice), a capecitabine + nicotinamide group (6 mice), and a docetaxel + nicotinamide group (6 mice). The groups were respectively administered corresponding modeling drugs by oral gavage (capecitabine at 200 mg/kg and docetaxel at 25 mg/kg) once daily; and the blank control group was administered an equivalent volume of normal saline. After administration with the chemotherapeutic drugs for 2 weeks, the ointments containing the compound of formula (I) (at a compound content of 3%) used in Example 10 were respectively applied topically in the groups, or nicotinamide was orally administered (100 mg/kg) once daily continuously for 16 days.
Measurement of the degree of swelling of toes: The degree of swelling of hind limb toes of the mice was measured using a toe swelling tester (KW-7C, Nanjing Calvin Biotechnology Co., Ltd.) before administration with the modeling drugs, after administration with the modeling drugs for 2 weeks, and before sacrifice, respectively. Before measurement, ankle joints of hind feet of the mice were marked at same positions before administration, after administration for 2 weeks, and before sacrifice. During measurement, water was properly located at the same level as the marked positions, and numerical values were recorded after becoming stable.
Pathological staining of skin tissues: Skin tissue samples were selected from hind limb toes of the mice and placed in 4% paraformaldehyde for fixation at room temperature for 4 hours. Then, the tissues were taken out and rinsed with running water for several hours. The samples were subjected to dehydration treatment with 70%, 80%, and 90% ethanol solutions, followed by treatment with a mixed solution of equal amounts of absolute alcohol and xylene for 15 minutes, and then permeabilized twice with a xylene solution for 15 minutes each time until the samples became transparent. The samples were placed in a mixture of half xylene and half paraffin for soaking for 15 minutes, and then, paraffin I and paraffin II were added for wax penetration for one hour, respectively. After embedding with paraffin, the samples were sectioned, baked, dewaxed, and hydrated. Then, the hydrated sections were placed in a hematoxylin solution (ZSGB-BIO, article No. 23041001) for staining for 3 minutes, and a differentiation solution of hydrochloric acid in ethanol was added for differentiation for 15 seconds. After rinsing with water, a Scott bluing solution (Servicebio, article No. 20230801) was added for bluing for 15 seconds. After rinsing with running water, the sections were stained with an eosin solution (Solarbio, article No. 33535) for 3 minutes, rinsed with running water, dehydrated, permeabilized, sealed, and inspected under a microscope.
Immunohistochemical staining: After baking, dewaxing, and hydration, paraffin sections of skin tissues of hind limb toes of the mice were subjected to antigen retrieval using a 0.2 M citric acid buffer solution (containing 1.534 g of citric acid, 3.1 g of sodium citrate, and 100 mL of distilled water, pH 4.7). Endogenous […] was removed using 3% hydrogen peroxide (Shandong Annjet High-Tech Disinfection Technology Co., Ltd., article No. 20290902), and the sections were incubated at room temperature for 10 minutes and then fully rinsed with a PBS buffer solution (containing 8 g of NaCl, 0.2 g of KCl, 1.44 g of Na2HPO4, and 1 M HCl, pH 7.4). The sections were permeabilized with 0.5% Triton-X-100 (AmyJet Scientific, article No. A-CSH436-100 mL), respectively permeabilized with mouse anti-IL-1β and rabbit IL-8 for 10 minutes, and not permeabilized with rabbit anti-IL-6. […]

HaCaT cells [2] = assay: m6A methylation level of human keratinocytes (EpiQuik m6A RNA methylation quantification kit); assay type: cell-based; details: 50 nM drug alone, 24 hours, relative to control group 1 (DMSO)
Description: HaCaT cells were cultured in DMEM culture medium containing 10% fetal bovine serum, 100 U/mL penicillin, and 100 µg/mL streptomycin. Culture dishes were placed in an incubator containing 5% CO2 for culture at 37°C for 24 hours. An equal volume of DMSO was added in control group 1, 50 nM sorafenib, capecitabine, docetaxel, and osimertinib were respectively added in control groups A, B, C, and D, and 400 nM test compounds or nicotinamide were respectively added in sample groups A1, A2, B1, B2, C1, C2, D1, and D2 after the addition of 50 nM corresponding compounds. The cells were continuously cultured for 24 hours, washed with PBS, and then collected by high-speed centrifugation. Total RNA was extracted using Trizol reagent (Sigma Aldrich), and RNA m6A methylation of a sample was quantitatively detected using an EpiQuik m6A RNA methylation quantification kit. The concentrations of positive control samples for a standard curve were 0.01 ng/µl, 0.02 ng/µl, 0.05 ng/µl, 0.1 ng/µl, 0.2 ng/µl, and 0.5 ng/µl. The absorbance at 450 nm was read using a microplate reader (Tecan GENios). A quantitative calculation formula for m6A is as follows: m6A(ng) = (absorbanceofsamplewell−absorbanceofbackroundwell)/slope of standard curve [formula] m6A(%) = m6A(ng)/RNA amount of sample(ng)*100%. [formula]

HaCaT cells [3] = assay: m6A methylation level of drug-treated HaCaT keratinocytes by nanopore sequencing; assay type: cell-based, human; details: 50 nM drug, 24 hours, vs blank control group
Description: 1*10^8 HaCaT cells were seeded in culture dishes, into which 50 nM drugs (including sorafenib, capecitabine, docetaxel, and osimertinib) were added, respectively. The cells were cultured in an incubator containing 5% CO2 at 37°C for 24 hours and washed with PBS after culture media were removed. Centrifugation was performed, the supernatant was discarded, and then, 400 µL of an RLT cell lysis buffer (QIAGEN, Cat.#79216) was added. A portion of samples were selected, into which 400 µL of 70% ethanol was added. The mixture was evenly stirred and then transferred to an RNeasy mini column, and RNA was extracted using an RNeasy mini kit (QIAGEN, Cat.#74104). 2 µL of an RNA sample was selected and dissolved in 98 µL of a 10 mM Tris-HCl buffer solution, and the absorbance at 260 nm was measured using a Nanodrop (Thermo Fisher Scientific) to determine the RNA concentration.
40 µg of an RNA sample was selected for enrichment of mRNA (PolyA+RNA) using an NEBNext Poly(A) mRNA magnetic isolation module (NEB, Cat.#E7490), and then, a 3' end of the above enriched mRNA (PolyA+RNA) molecule was ligated with reverse transcription adapter RTA using a direct RNA sequencing kit (Oxford Nanopore Technologies, Cat.#SQK-RNA002). A reverse transcription reaction was performed with the mRNA (PolyA+RNA) molecule as a template to synthesize a complementary strand, a terminal end of the reverse transcription adapter RTA was ligated with a sequencing adapter (RNA adapter) to form a final sequencing library, and quantitative detection was performed using a Qubit™ dsDNA HS assay kit (Invitrogen, Cat.#LOT2133187).
After quality inspection of the library, the prepared sequencing library was loaded onto a PromethION flow cell chip (Oxford Nanopore Technologies, Cat.#FLO-MIN106D), and placed in a PromethION sequencer (Oxford Nanopore Technologies) for sequencing by selecting a matched sequencing mode. Basecalling was performed on sequencing data through guppy, and m6A methylation analysis was performed on original fast5 data.

[4] = competitive suspension tests of crystal forms (XRPD); assay type: physicochemical; details: isopropanol, isopropyl acetate, and acetonitrile; 5°C, 25°C, 50°C, 3 days
Description: A 2θ scanning angle of the sample was 3°-40°, a scanning step size was 0.02°, and a scanning time per step was 0.12 s/step. An optical tube voltage and a current were 40 kV and 40 mA, respectively. During sample preparation, an appropriate amount of the sample was placed on a sample tray and flattened with a tool such as a glass slide to ensure a smooth and even surface.
Resulting suspensions were suspended at 5°C, 25°C, and 50°C for 3 days, respectively. The resulting suspensions were centrifuged, and solid portions were detected by XRPD.

| SMILES | cytokine IL-8 in the skin tissues of the hind limb toes of the mice ([1]; capecitabine oral 14 days, vs normal control group, p<0.05) | swelling of the hind limb toes of the mice [1] | epidermal layer and the stratum corneum in the skin tissues of the hind limb toes ([1]; vs normal control group) | skin of the hind limb toes of the mice (appearance) ([1]; vs normal control group) | m6A fold change (HaCaT cells [2]) | m6A methylation levels of HaCaT cells higher than that of the control group (HaCaT cells [3]) | cytokine IL-6 in the skin tissues of the hind limb toes of the mice ([1]; docetaxel oral 14 days, vs normal control group, p<0.05) | crystal form after competitive suspension slurrying [4] |
| --- | --- | --- | --- | --- | --- | --- | --- | --- |
| CCCCCOC(=O)Nc1nc(=O)n([C@@H]2O[C@H](C)[C@@H](O)[C@H]2O)cc1F [Capecitabine, capecitabine] | significantly increased | swelling of the hind limb toes of the mice was caused | significantly thickened | obvious erythema, rhagades, and blisters | 6.7 fold | 6.01 fold | – | – |
| CC(=O)O[C@@]12CO[C@@H]1C[C@H](O)[C@@]1(C)C(=O)[C@H](O)C3=C(C)[C@@H](OC(=O)[C@H](O)[C@@H](NC(=O)OC(C)(C)C)c4ccccc4)C[C@@](O)([C@@H](OC(=O)c4ccccc4)[C@H]21)C3(C)C [Docetaxel, docetaxel] | – | swelling of the hind limb toes of the mice was caused | significantly thickened | obvious erythema, rhagades, and blisters | 5.6 fold | 3.97 fold | significantly increased | – |
| NC(=O)[C@H]1CCCc2c1[nH]c1ccc(Cl)cc21 [Crystal form B, (S)-6-chloro-2,3,4,9-tetrahydro-1H-carbazole-carboxamide] | – | – | – | – | – | – | – | converted into the crystal form F |

— patent publication EP4782431A1 (Suzhou Merna Therapeutics Co. Ltd, priority 2023, dated 2025)
